According to patent US20240390453A1, “PEPTIDE HAVING HAIR LOSS PREVENTION OR HAIR GROWTH PROMOTION ACTIVITY, AND USE THEREOF” (CAREGEN CO., LTD., priority 2021, published 2024):

Experiments:
LEF-1 = test: RT-PCR of LEF-1 expression in HHFDPC; format: cell-based, human; settings: peptide 500 nM, 5 μM, 50 μM, 24 hours, FIG. 4
Procedure: (§1) Furthermore, in order to determine whether the β-catenin moves to the nucleus and is activated to affect cell proliferation and differentiation, whether the expression of LEF-1, c-Myc and cyclin D1 (cyclin D1), which act as downstream factors, increases with β-catenin activation was confirmed through RT-PCR. Specifically, in the same manner as the previous Western blotting experiment, HHFDPC cells were cultured, treated with the peptides of the Preparation Example of the present invention at concentrations of 500 nM, 5 μM, and 50 μM, respectively, and cultured at 37° C. for 24 hours. After washing the cells with PBS, RNA was isolated by treating them with 300 μl of easy blue (intron, Korea). Then, cDNA was synthesized using a cDNA synthesis kit (enzynomics, Korea) by quantifying it with nano drop, and PCR was performed using primers for LEF-1, c-Myc and cyclin D1 (base sequences of the primer are listed in Table 2 below) and PCR premix (enzynomics, Korea). Electrophoresis was performed on a 1.5% agarose gel, and then the mRNA of LEF-1, c-Myc and cyclin D1 was detected using a band analysis system (Bio-Rad gel image system).

[1] = system: DKK-1 protein (dickkopf-related protein 1); test: Western blotting of DKK-1 protein in DHT-treated HHFDPC; format: cell-based, human; settings: HHFDPC with DHT 100 nM, peptide 500 nM, 5 μM, 50 μM, 24 hours, FIG. 5
Procedure: DKK-1 protein (dickkopf-related protein 1) is a hair loss-related protein known to be highly expressed in individuals with hair loss, especially male pattern hair loss, and its expression is known to be promoted by hormones such as DHT (Dihydrotestosterone). Accordingly, the expression of DKK-1 protein was induced by treating HHFDPC cells with DHT together with the peptide according to the Preparation Example of the present invention, and then the expression level of DKK-1 was measured through Western blotting to determine whether there was an effect of suppressing the expression of DKK-1 protein.
Specifically, HHFDPC as in [Experiment Example 1-1] was seeded in a 6-well culture plate at 4λ10^5 cells/well and then cultured in MSC complete medium (mesenchymal stem cell complete media) for 24 hours. Next, the medium was replaced with serum free MSC complete medium and cultured again for 24 hours. In addition, the HHFDPC was treated with the peptide of SEQ ID NO: 1 prepared in the Preparation Example at concentrations of 500 nM, 5 μM, and 50 μM, respectively, and at this time, DHT, an expression inducer of DKK-1 protein, was simultaneously treated at a concentration of 100 nM and then cultured at 37° C. for 24 hours. […] After washing again with 0.1% PBS-T (0.1% Tween-20 in PBS) three times for 15 minutes each, DKK-1 protein was detected by treatment with ECL solution (GE Healthcare, USA).

[2] = system: human hair follicle dermal papilla cells (HHFDPC); test: Proliferation of dermal papilla cells (MTT, absorbance at 540 nm); format: cell-based; settings: peptide 500 nM, 72 hours, FIG. 1
Procedure: While culturing human hair follicle dermal dermal papilla cells (HHFDPC), the absorbance was measured after treatment with the peptide of the present invention to confirm whether there was an effect of promoting the proliferation of the HHFDPC dermal papilla cells.
Specifically, HHFDPC (Sciencell, USA) was seeded at 4λ10^3 cells/well in a 96-well culture plate, cultured in MSC complete medium (mesenchymal stem cell complete media, Sciencell, USA) for 24 hours, and then the medium was replaced with serum free MSC complete medium and cultured for another 24 hours. Then, the HHFDPC was treated with the peptide of SEQ ID NO: 1 prepared in the Preparation Example at concentrations of 500 nM, 5 μM, and 50 μM, respectively, and cultured at 37° C. for 72 hours. As a positive control, minoxidil was treated at a concentration of 1 μM, and as a negative control, HHFDPC without any treatment was used. Then, 10 μl of 5 mg/mL MTT solution was added and cultured in a 37° C. CO2 incubator for 4 hours to stain the cells. After removing the medium, the cells were treated with 100 μl of DMSO and shaken for 10 minutes, and the number of HHFDPC cells was confirmed by measuring absorbance at a wavelength of 540 nm using a spectrophotometer.

cyclin D1 = test: RT-PCR of cyclin D1 expression in HHFDPC; format: cell-based, human; settings: peptide 500 nM, 5 μM, 50 μM, 24 hours, FIG. 4
Procedure: as §1

β-catenin = test: Western blotting of β-catenin moved into the nucleus of HHFDPC; format: cell-based, human; settings: HHFDPC nuclear protein, peptide 500 nM, 5 µM, and 50 μM, 24 hours, FIG. 3
Procedure: In addition, in addition to p-AKT and p-ERK, in order to confirm the activation of β-catenin, which is known to affect cell proliferation and differentiation, whether β-catenin moved into the nucleus was confirmed through Western blotting. Specifically, the HHFDPC as in [Experiment Example 1-1] was seeded in a 6-well culture plate at an amount of 4λ10^5 cells/well, cultured in MSC complete medium (mesenchymal stem cell complete media) for 24 hours. Next, the medium was replaced with serum free MSC complete medium and cultured again for 24 hours. Then, the HHFDPC was treated with the peptide of SEQ ID NO: 1 prepared in the Preparation Example at concentrations of 500 nM, […], and 50 μM, respectively, and cultured at 37° C. for 24 hours. As a positive control, minoxidil was treated at a concentration of 1 μM, and as a negative control, HHFDPC without any treatment was used. After washing with PBS, proteins in the nucleus were isolated using a nuclear protein extraction kit (Thermo scientific, USA). After electrophoresis using a 10% SDS-PAGE gel, it was transferred to a PVDF membrane and blocked using 5% skim milk at room temperature for 30 minutes. […] After washing again with 0.1% PBS-T (0.1% Tween-20 in PBS) three times for 15 minutes each, β-catenin was detected by treatment with ECL solution (GE Healthcare, USA).

Keratin 5 = test: RT-PCR of Keratin 5 expression in HHORSC; format: cell-based, human; settings: peptide 500 nM, 5 μM, 50 μM, 72 hours, FIG. 6
Procedure: (§2) Specifically, HHORSC (human hair outer root sheath cell, Sciencell, USA) was seeded in a 6-well culture plate at 4λ10^5 cells/well and then cultured in MSC complete medium (mesenchymal stem cell complete media) for 24 hours. Next, the medium was replaced with serum free MSC complete medium and cultured again for 24 hours. Then, the HHORSC was treated with the peptide of SEQ ID NO: […] in the Preparation Example at concentrations of 500 nM, 5 μM, and 50 μM, respectively, and cultured at 37° C. for 72 hours. As a positive control, EGF was treated at a concentration of 50 nM, and as a negative control, HHORSC without any treatment was used. After washing with PBS, RNA was isolated by treating with 300 μl of easy blue (intron, Korea). Then, cDNA was synthesized using a cDNA synthesis kit (enzynomics, Korea) by quantification using nano drop, and PCR was performed using primers for Ha3-II, Keratin 5, Keratin 14, and Keratin 19 (base sequences of primer are listed in Table 3 below) and PCR premix (enzynomics, Korea). Electrophoresis was performed on a 1.5% agarose gel, and the mRNAs of Ha3-II, Keratin 5, Keratin 14, and Keratin 19 were detected using a band analysis system (Bio-Rad gel image system).

FOXN1 = test: RT-PCR of FOXN1 expression in HHGMC; format: cell-based, human; settings: peptide 500 nM, 5 μM, 50 μM, 72 hours, FIG. 7
Procedure: (§3) Specifically, HHGMC (human hair germinal matrix cell, Sciencell, USA) was seeded in a 6-well culture plate at 4λ10^5 cells/well and then cultured in MSC complete medium (mesenchymal stem cell complete media) for 24 hours. Next, the medium was replaced with serum free MSC complete medium and cultured again for 24 hours. Then, the HHGMC was treated with the peptide of SEQ ID NO: 1 prepared in the Preparation Example at concentrations of 500 nM, 5 μM, and 50 μM, respectively, and cultured at 37° C. for 72 hours. As a positive control, EGF was treated at a concentration of 50 nM, and as a negative control, HHGMC without any treatment was used. After washing with PBS, RNA was isolated by treating with 300 μl of easy blue (intron, Korea). Next, cDNA was synthesized using a cDNA synthesis kit (enzynomics, Korea) by quantification using nano drop, and PCR was performed using primers for MSX2 and FOXN1 (base sequences of primer are listed in Table 4 below) and PCR premix (enzynomics, Korea). Electrophoresis was performed on a 1.5% agarose gel, and mRNA of MSX2 and FOXN1 was detected using a band analysis system (Bio-Rad gel image system).

MSX2 = test: RT-PCR of MSX2 expression in HHGMC; format: cell-based, human; settings: peptide 500 nM, 5 μM, 50 μM, 72 hours, FIG. 7
Procedure: as §3

p-AKT = test: Western blotting of phosphorylated AKT in HHFDPC; format: cell-based, human; settings: peptide 500 nM, 5 μM, and 50 µM, 24 hours, FIG. 2
Procedure: (§4) First, phosphorylated forms of AKT and ERK, which act as signaling molecules related to the proliferation of HHFDPC, were confirmed through Western blotting. Specifically, HHFDPC as in [Experiment Example 1-1] above was seeded at 4λ10^5 cells/well in a 6-well culture plate, cultured in MSC complete medium (mesenchymal stem cell complete media) for 24 hours, and then the medium was replaced with serum free MSC complete medium and cultured for another 24 hours. Then, the HHFDPC was treated with the peptide of SEQ ID NO: 1 prepared in the Preparation Example at concentrations of 500 nM, 5 μM, and 50 µM, respectively, and cultured at 37° C. for 24 hours. As a positive control, minoxidil was treated at a concentration of 1 μM, and as a negative control, HHFDPC without any treatment was used. Then, Western blotting was performed to detect phosphorylated AKT and phosphorylated ERK. After washing with PBS, the cells were treated with 100 μl of lysis buffer to destroy cells, thereby obtaining cell lysate. After electrophoresis using a 10% SDS-PAGE gel, it was transferred to a PVDF membrane and blocked using 5% skim milk at room temperature for 30 minutes. […] After washing again with 0.1% PBS-T (0.1% Tween-20 in PBS) three times for 15 minutes each, p-AKT and p-ERK were detected by treatment with ECL solution (GE Healthcare, USA).

Keratin 14 = test: RT-PCR of Keratin 14 expression in HHORSC; format: cell-based, human; settings: peptide 500 nM, 5 μM, 50 μM, 72 hours, FIG. 6
Procedure: as §2

p-ERK = test: Western blotting of phosphorylated ERK in HHFDPC; format: cell-based, human; settings: peptide 500 nM, 5 μM, and 50 µM, 24 hours, FIG. 2
Procedure: as §4

Keratin 19 = test: RT-PCR of Keratin 19 expression in HHORSC; format: cell-based, human; settings: peptide 500 nM, 5 μM, 50 μM, 72 hours, FIG. 6
Procedure: as §2

Ha3-II = test: RT-PCR of Ha3-II expression in HHORSC; format: cell-based, human; settings: peptide 500 nM, 5 μM, 50 μM, 72 hours, FIG. 6
Procedure: as §2

c-Myc = test: RT-PCR of c-Myc expression in HHFDPC; format: cell-based, human; settings: peptide 500 nM, 5 μM, 50 μM, 24 hours, FIG. 4
Procedure: as §1

## HLPKPI [peptide of the present invention]
LEF-1
  amount of LEF-1 mRNA compared to the control group without any treatment: increased further
[1]
  concentration dependence of the decrease of DHT-increased DKK-1 expression: decreased again depending on the concentration
[1]; Western blotting
  amount of DKK-1 protein compared to the negative control group (DHT only): reduced
[2]; 5 μM, 50 μM, MTT, 540 nm
  absorbance (number of HHFDPC cells, proliferation) compared to the untreated control group: higher
[2]; 5 μM, and 50 μM vs minoxidil 1 μM
  proliferation promotion effect compared to the positive control group: better proliferation promotion effect than the positive control group
Cyclin D1
  amount of cyclin D1 mRNA compared to the control group without any treatment: increased further
β-catenin
  concentration dependence of β-catenin activation: further promoted depending on the concentration
β-catenin; Western blotting
  migration of β-catenin to the nucleus due to activation, compared to the control group not treated with the peptide: increased
Keratin 5
  amount of Keratin 5 mRNA compared to the control group without treatment: increased further
FOXN1
  amount of FOXN1 mRNA compared to the untreated control group: increased further
MSX2
  amount of MSX2 mRNA compared to the untreated control group: increased further
p-AKT
  phosphorylation of AKT (p-AKT) compared to the control group not treated with the peptide: increased
Keratin 14
  amount of Keratin 14 mRNA compared to the control group without treatment: increased further
p-ERK
  phosphorylation of ERK (p-ERK) compared to the control group not treated with the peptide: increased
Keratin 19
  amount of Keratin 19 mRNA compared to the control group without treatment: increased further
Ha3-II
  amount of Ha3-II mRNA compared to the control group without treatment: increased further
c-Myc
  amount of c-Myc mRNA compared to the control group without any treatment: increased further
